The structures appear in SMILES notation.

T1 sequence (P35968 786-1356 limits assumed): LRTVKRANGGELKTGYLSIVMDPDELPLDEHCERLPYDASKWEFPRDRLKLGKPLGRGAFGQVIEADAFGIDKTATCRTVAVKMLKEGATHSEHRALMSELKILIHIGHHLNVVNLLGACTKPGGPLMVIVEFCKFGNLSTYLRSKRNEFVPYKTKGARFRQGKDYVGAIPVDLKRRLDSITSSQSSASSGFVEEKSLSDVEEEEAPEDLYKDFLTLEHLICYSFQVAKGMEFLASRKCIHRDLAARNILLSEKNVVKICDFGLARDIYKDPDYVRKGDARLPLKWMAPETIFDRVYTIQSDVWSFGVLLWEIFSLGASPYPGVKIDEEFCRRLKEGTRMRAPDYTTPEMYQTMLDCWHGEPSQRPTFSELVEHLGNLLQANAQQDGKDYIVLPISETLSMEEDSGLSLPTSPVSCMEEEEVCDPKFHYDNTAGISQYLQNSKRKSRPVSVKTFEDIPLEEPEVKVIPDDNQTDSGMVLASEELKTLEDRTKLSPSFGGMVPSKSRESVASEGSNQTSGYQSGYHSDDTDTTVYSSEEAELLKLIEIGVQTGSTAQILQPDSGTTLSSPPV

The first assay has as its target T1, human KDR enzyme (Homo sapiens, UniProt P35968).
T1 construct: The cytoplasmic domain of human KDR enzyme is cloned in the form of a GST fusion; GST; made in house; host or cells: SF21 insect cells (baculovirus, pFastBac)
In words: Phosphorylation of the substrate PLCγ by the enzyme KDR in vitro (flashplate technique). It counts as biochemical. Particulars: Table VII, degrees of activity by IC50 range; read-out: Activity. The method, then:
The inhibitory effect of the compounds is determined in a test of phosphorylation of a substrate by the enzyme KDR in vitro by the flasplate technique (96-well plate, NEN). The cytoplasmic domain of human KDR enzyme is cloned in the form of a GST fusion into the baculovirus expression vector pFastBac. The protein is expressed in the SF21 cells and purified to about 60% homogeneity.
The kinase activity of KDR is measured in 20 mM MOPS, 10 mM MgCl2, 10 mM MnCl2, 1 mM DTT, 2.5 mM EGTA, 10 mM β-glycerophosphate, pH 7.2 in the presence of 10 mM MgCl2, 100 μM Na3VO4, 1 mM NaF. 10 μl of the compound are added to 70 μl of kinase buffer containing 100 ng of KDR enzyme at 4° C. The reaction is initiated by adding 20 μl of solution containing 2 μg of substrate (fragment SH2-SH3 of PLCγ expressed in the form of a GST fusion protein), 2 μCi γ33P[ATP] and 2 μM cold ATP. After incubating for 1 h at 37° C., the reaction is quenched by adding 1 volume (100 μl) of 200 mM EDTA. The incubation buffer is removed and the wells are washed three times with 300 μl of PBS. The radioactivity is measured in each well using a Top Count NXT instrument (Packard).
Background noise is determined by measuring the radio-activity in wells in quadruplet containing radioactive ATP and the substrate alone.
An activity control is measured in wells in quadruplet containing all the reagents (γ33P-[ATP], KDR and the substrate PLCγ) and in the absence of compound.
The inhibition of the KDR activity with the compound of the invention is expressed as a percentage of inhibition of the control activity determined in the absence of compound.
The compound SU5614 (Calbiochem) (1 μM) is included in each plate as inhibition control.
The IC50 values for the compounds are calculated by plotting the dose-response curves. The IC50 corresponds to the concentration of compound that induces a 50% inhibition of the kinase activity.
Turning to `O=C(NCc1ccccc1F)c1ccc2[nH]c(-c3n[nH]c4ccccc34)nc2c1` [Example 154, 2-(1H-Indazol-3-yl)-1H-benzoimidazole-5-carboxylic acid 2-fluoro-benzylamide], the IC50 lay within 0.3 to 3 µM.

For `O=C(NCc1ccccc1)c1cccc2nc(-c3n[nH]c4ccccc34)[nH]c12` [Example 95, 2-(1H-Indazol-3-yl)-3H-benzoimidazole-4-carboxylic acid benzylamide], the IC50 is greater than 3 µM. On the same count and under the same terms, for `O=C(NCc1cccc(C(F)(F)F)c1)c1ccc2[nH]c(-c3n[nH]c4ccccc34)nc2c1` [Example 61, 2-(1H-Indazol-3-yl)-1H-benzoimidazole-5-carboxylic acid 3-trifluoromethyl-benzylamide] the value was greater than 3 µM. Take `O=C(NCc1ccc(Br)cc1F)c1ccc2[nH]c(-c3n[nH]c4ccccc34)nc2c1` [Example 157, 2-(1H-Indazol-3-yl)-1H-benzoimidazole-5-carboxylic acid 4-bromo-2-fluoro-benzylamide]: the IC50 was less than 0.3 µM.

As for `O=C(NCc1ccc(Cl)nc1)c1cccc2nc(-c3n[nH]c4ccccc34)[nH]c12` [Example 86, 2-(1H-Indazol-3-yl)-3H-benzoimidazole-4-carboxylic acid (6-chloro-pyridin-3-ylmethyl)-amide], the IC50 is greater than 3 µM. For `O=C(NCc1c(F)cccc1F)c1ccc2[nH]c(-c3n[nH]c4ccccc34)nc2c1` [Example 156, 2-(1H-Indazol-3-yl)-1H-benzoimidazole-5-carboxylic acid 2,6-difluoro-benzylamide], the IC50 lay within 0.3 to 3 µM. `Cc1ccccc1-c1ccc2nc(-c3[nH]nc4ccccc34)[nH]c2c1` [Example 109, 3-(6-o-Tolyl-1H-benzoimidazol-2-yl)-2H-indazole]: the IC50 lay within 0.3 to 3 µM. The same measure, in the same setting: under `O=C(NCc1ccc(-c2ccccn2)s1)c1ccc2[nH]c(-c3n[nH]c4ccccc34)nc2c1` [Example 173, 2-(1H-Indazol-3-yl)-1H-benzoimidazole-5-carboxylic acid (5-pyridin-2-yl-thiophen-2-ylmethyl)-amide] stands 0.3 to 3 µM; under `O=C(Oc1cc(-c2nc3ccccc3[nH]2)[nH]n1)C(F)(F)C(F)(F)C(F)(F)F` [Example 222, 2,2,3,3,4,4,4-Heptafluoro-butyric acid 5-(1H-benzoimidazol-2-yl)-1H-pyrazol-3-yl ester], greater than 3 µM; under `O=C(Oc1cc(-c2nc3ccccc3[nH]2)[nH]n1)c1cc(C(F)(F)F)cc(C(F)(F)F)c1` [Example 226, 3,5-Bis-trifluoromethyl-benzoic acid 5-(1H-benzoimidazol-2-yl)-1H-pyrazol-3-yl ester], greater than 3 µM. As to `O=C(NCc1csc2ccccc12)c1ccc2[nH]c(-c3n[nH]c4ccccc34)nc2c1` [Example 42, 2-(1H-Indazol-3-yl)-1H-benzoimidazole-5-carboxylic acid (benzo[b]thiophen-3-ylmethyl)-amide], the IC50 was in the range of 0.3 to 3 µM. Regarding `O=C(NCc1ccccc1OC(F)(F)F)c1ccc2[nH]c(-c3n[nH]c4ccccc34)nc2c1` [Example 44, 2-(1H-Indazol-3-yl)-1H-benzoimidazole-5-carboxylic acid 2-trifluoromethoxy-benzylamide], the IC50 is 0.3 to 3 µM. On to `O=C(NCc1cccc(Cl)c1)c1cccc2nc(-c3n[nH]c4ccccc34)[nH]c12` [Example 93, 2-(1H-Indazol-3-yl)-3H-benzoimidazole-4-carboxylic acid 3-chloro-benzylamide], for which the IC50 is greater than 3 µM. As for `O=C(NCc1ccsc1)c1ccc2[nH]c(-c3n[nH]c4ccccc34)nc2c1` [Example 68, 2-(1H-Indazol-3-yl)-1H-benzoimidazole-5-carboxylic acid (thiophen-3-ylmethyl)-amide], the IC50 was 0.3 to 3 µM. For `O=C(NCc1ccc(-c2ccc(Cl)cc2)cc1)c1ccc2[nH]c(-c3n[nH]c4ccccc34)nc2c1` [Example 162, 2-(1H-Indazol-3-yl)-1H-benzoimidazole-5-carboxylic acid (4′-chloro-biphenyl-4-ylmethyl)-amide], the IC50 was greater than 3 µM.

Turning to `O=C(COc1cc(-c2nc3ccccc3[nH]2)[nH]n1)c1ccc2ccccc2c1` [Example 207, 2-[5-(1H-Benzoimidazol-2-yl)-1H-pyrazol-3-yloxy]-1-naphthalen-2-yl-ethanone], the IC50 is greater than 3 µM. Same read-out and setting: under `FC(F)(F)c1ccc(-c2ccc3nc(-c4[nH]nc5ccccc45)[nH]c3c2)cc1` [Example 112, 3-[6-(4-Trifluoromethyl-phenyl)-1H-benzoimidazol-2-yl]-2H-indazole] stands greater than 3 µM; under `Fc1ccc(-c2ccc3nc(-c4[nH]nc5ccccc45)[nH]c3c2)cc1` [Example 100, 3-[6-(4-Fluoro-phenyl)-1H-benzoimidazol-2-yl]-2H-indazole], 0.3 to 3 µM. On the same count and under the same terms, under `O=C(c1ccc2[nH]c(-c3n[nH]c4ccccc34)nc2c1)N1CCOCC1` [Example 150, [2-(1H-Indazol-3-yl)-1H-benzoimidazol-5-yl]-morpholin-4-yl-methanone] stands 0.3 to 3 µM; under `Clc1ccc(-c2ccc3nc(-c4[nH]nc5ccccc45)[nH]c3c2)cc1` [Example 101, 3-[6-(4-Chloro-phenyl)-1H-benzoimidazol-2-yl]-2H-indazole], greater than 3 µM; under `O=C(NCCCn1ccnc1)c1ccc2[nH]c(-c3n[nH]c4ccccc34)nc2c1` [Example 174, 2-(1H-Indazol-3-yl)-1H-benzoimidazole-5-carboxylic acid (3-imidazol-1-yl-propyl)-amide], 0.3 to 3 µM.

Consider `O=C(NCc1c(F)cc(Cl)cc1Cl)c1ccc2[nH]c(-c3n[nH]c4ccccc34)nc2c1` [Example 177, 2-(1H-Indazol-3-yl)-1H-benzoimidazole-5-carboxylic acid (2,4-dichloro-6-fluoro-benzyl)amide], for which the IC50 is less than 0.3 µM. `CSc1ccccc1CNC(=O)c1ccc2[nH]c(-c3n[nH]c4ccccc34)nc2c1` [Example 62, 2-(1H-Indazol-3-yl)-1H-benzoimidazole-5-carboxylic acid 2-methylsulfanyl-benzylamide]: the IC50 is less than 0.3 µM. On to `CS(=O)(=O)c1ccc(CNC(=O)c2ccc3[nH]c(-c4n[nH]c5ccccc45)nc3c2)cc1` [Example 31, 2-(1H-Indazol-3-yl)-1H-benzoimidazole-5-carboxylic acid 4-methanesulfonyl-benzylamide], for which the IC50 is less than 0.3 µM. For the compound `O=C(NCc1cccc(OC(F)(F)F)c1)c1ccc2[nH]c(-c3n[nH]c4ccccc34)nc2c1` [Example 49, 2-(1H-Indazol-3-yl)-1H-benzoimidazole-5-carboxylic acid 3-trifluoromethoxy-benzylamide], the IC50 lay within 0.3 to 3 µM. Turning to `CN(C)c1ccc(CNC(=O)c2cccc3nc(-c4n[nH]c5ccccc45)[nH]c23)cc1` [Example 78, 2-(1H-Indazol-3-yl)-3H-benzoimidazole-4-carboxylic acid 4-dimethylamino-benzylamide], the IC50 is greater than 3 µM. `CCCC/C=C/c1ccc2nc(-c3[nH]nc4ccccc34)[nH]c2c1` [Example 119, 3-(6-Hex-1-enyl-1H-benzoimidazol-2-yl)-2H-indazole]: the IC50 lay within 0.3 to 3 µM.

As to `CC(C)(C)C(=O)COc1cc(-c2nc3ccccc3[nH]2)[nH]n1` [Example 205, 1-[5-(1H-Benzoimidazol-2-yl)-1H-pyrazol-3-yloxy]-3,3-dimethyl-butan-2-one], the IC50 is greater than 3 µM. Still for that read-out and setting: under `O=C(NCc1csc2ccccc12)c1ccc2[nH]c(-c3n[nH]c4ccccc34)nc2c1` [Example 63, 2-(1H-Indazol-3-yl)-1H-benzoimidazole-5-carboxylic acid (benzo[b]thiophen-3-ylmethyl)-amide] stands less than 0.3 µM.

Staying with this assay, now noted: product tested at 10 μM; read-out: % of inhibition of the phosphorylation of PLCγ by KDR (product tested at a concentration of 10 μM).
On to `Brc1ccc2nc(-c3n[nH]c4ccccc34)[nH]c2c1` [Example 18, 5-Bromo-2-(1H-indazol-3-yl)-3H-benzimidazole], for which the inhibition at 10 µM is 91.2%.

Still in this assay, the particulars now being: read-out: IC50 (μM) on inhibition of the phosphory-lation of PLCγ by KDR.
With `O=C(c1ccc2[nH]c(-c3n[nH]c4ccccc34)nc2c1)N1CCOCC1` [Example 7, 2-(1H-Indazol-3-yl)-1H-benzimidazole-5-carboxylic acid N-morpholinoamide], the IC50 turned out to be 0.72 µM. On to `COc1ccc2nc(-c3n[nH]c4ccccc34)[nH]c2c1` [Example 16, 5-Methoxy-2-(1H-indazol-3-yl)-1H-benzimidazole], for which the IC50 was 2 µM. Consider `CNC(=O)c1ccc2[nH]c(-c3n[nH]c4ccccc34)nc2c1` [Example 2, 2-(1H-Indazol-3-yl)-1H-benzimidazole-5-carboxylic acid N-methylamide], for which the IC50 was found to be 0.45 µM.

Source of the values: patent publication US20050009894A1 (Aventis Pharma S.A., priority 2001, published 2005).
